Source: patent US9242973B2, “Chromane compounds” (CoMentis, Inc., priority 2012, dated 2016)

These compounds were tested against hERG potassium channel (Homo sapiens (Human), UniProt Q12809) (assay: Test Example 5: hERG inhibition, automated patch clamp in hERG-expressing CHO cells). Conditions: read-out: Test Example 5 hERG IC50, QPatch, room temperature.
Chain of hERG potassium channel (Q12809 whole entry): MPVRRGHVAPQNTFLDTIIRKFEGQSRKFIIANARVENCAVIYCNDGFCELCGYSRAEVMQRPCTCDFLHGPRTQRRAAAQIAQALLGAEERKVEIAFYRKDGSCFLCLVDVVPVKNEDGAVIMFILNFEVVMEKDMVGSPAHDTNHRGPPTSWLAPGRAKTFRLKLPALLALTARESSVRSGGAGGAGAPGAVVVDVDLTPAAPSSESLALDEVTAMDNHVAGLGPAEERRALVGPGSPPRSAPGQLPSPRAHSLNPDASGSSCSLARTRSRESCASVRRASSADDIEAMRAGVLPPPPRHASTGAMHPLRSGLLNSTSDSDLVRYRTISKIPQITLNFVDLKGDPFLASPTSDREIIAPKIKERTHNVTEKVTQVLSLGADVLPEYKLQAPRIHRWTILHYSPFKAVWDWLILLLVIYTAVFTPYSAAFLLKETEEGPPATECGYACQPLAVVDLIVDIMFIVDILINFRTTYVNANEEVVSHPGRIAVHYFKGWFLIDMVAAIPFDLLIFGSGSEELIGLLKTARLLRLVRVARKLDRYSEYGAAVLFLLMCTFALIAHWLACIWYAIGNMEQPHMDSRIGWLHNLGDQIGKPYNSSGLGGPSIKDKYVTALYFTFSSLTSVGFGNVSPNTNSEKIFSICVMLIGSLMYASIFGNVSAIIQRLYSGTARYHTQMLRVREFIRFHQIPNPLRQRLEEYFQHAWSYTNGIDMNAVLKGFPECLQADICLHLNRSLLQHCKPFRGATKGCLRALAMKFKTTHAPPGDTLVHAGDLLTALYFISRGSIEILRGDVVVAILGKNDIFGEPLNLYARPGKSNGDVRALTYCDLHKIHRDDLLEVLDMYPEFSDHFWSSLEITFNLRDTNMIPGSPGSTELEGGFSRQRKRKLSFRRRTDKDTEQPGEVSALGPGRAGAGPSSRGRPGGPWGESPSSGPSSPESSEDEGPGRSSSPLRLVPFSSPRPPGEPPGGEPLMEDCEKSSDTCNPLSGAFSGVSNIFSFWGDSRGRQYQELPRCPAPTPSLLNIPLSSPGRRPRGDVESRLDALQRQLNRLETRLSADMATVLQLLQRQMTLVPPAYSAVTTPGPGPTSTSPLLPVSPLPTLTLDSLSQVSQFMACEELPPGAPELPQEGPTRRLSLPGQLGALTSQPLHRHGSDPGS
`CC1(C)Oc2ccc(NC(=O)c3ccc(C#N)cn3)cc2C2(COC(N)=N2)C12COC2` (centres unmarked) [Example 197] gave an IC50 greater than 10000 nM.

The compounds below were run against BACE1 (Homo sapiens (Human), UniProt P56817) (assay: Test Example 1: BACE1 inhibition by FRET (MCA substrate); IC50 and Ki). Conditions: read-out: Test Example 1 IC50.
Chain of BACE1 (P56817 75-416): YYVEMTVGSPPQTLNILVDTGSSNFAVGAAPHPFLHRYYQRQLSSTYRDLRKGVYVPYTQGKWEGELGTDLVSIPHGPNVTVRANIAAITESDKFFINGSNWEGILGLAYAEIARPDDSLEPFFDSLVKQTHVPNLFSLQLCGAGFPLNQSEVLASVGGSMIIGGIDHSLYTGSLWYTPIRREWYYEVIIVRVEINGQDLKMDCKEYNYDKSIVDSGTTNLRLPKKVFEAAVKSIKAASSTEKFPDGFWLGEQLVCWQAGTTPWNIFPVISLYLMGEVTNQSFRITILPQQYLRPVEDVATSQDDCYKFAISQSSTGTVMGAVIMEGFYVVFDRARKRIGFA
`CC1(C)Oc2ccc(NC(=O)c3ccc(F)cn3)cc2C2(COC(N)=N2)C12COC2` (centres unmarked) [Example 28] gave an IC50 of 154 nM. `CC1(C)Oc2ccc(NC(=O)c3ncc(Cl)cc3F)cc2C2(COC(N)=N2)C12COC2` (centres unmarked) [Example 30] showed an IC50 of 97.5 nM.

Same assay, conditions: read-out: Test Example 1 IC50; FRET, MCA substrate 3 μM, BACE1 65 nM, pH 4.4
With `CCCC1Oc2ccc(Br)cc2C2(COC(N)=N2)C12COC2` (single isomer, unassigned) [RP 11a] the IC50 was 15600 nM. `CCCC1Oc2ccc(Br)cc2C2(COC(N)=N2)C12COC2` (single isomer, unassigned) [RP 11b] showed an IC50 of 17400 nM. `NC1=NC2(CO1)c1cc(NC(=O)c3ccc(Cl)cn3)ccc1OCC21CC1` (centres unmarked) [RP 32] was tested, and the IC50 was 418 nM.

The compounds below were run on Aβ production in SK-N-BE(2) neuroblastoma cells (assay: Test Example 3: Aβ production inhibition in cell (Aβ40 ELISA, SK-N-BE(2))). Conditions: Homo sapiens, SKNBE2, 6 h, read-out: Test Example 3 IC50.
Work on `CC1(C)Oc2ccc(NC(=O)c3ccc(F)cn3)cc2C2(COC(N)=N2)C12COC2` (centres unmarked) [Example 28] yielded an IC50 of 19 nM. `CC1(C)Oc2ccc(NC(=O)c3ncc(Cl)cc3F)cc2C2(COC(N)=N2)C12COC2` (centres unmarked) [Example 30] showed an IC50 of 2.3 nM.

Same assay, conditions: Homo sapiens, SKNBE2, 6 h, read-out: Test Example 3 IC50, SK-N-BE(2) cells, 6 hours, Aβ40 ELISA normalized by viability
`Cc1cc(F)cc(-c2ccc3c(c2)C2(COC(N)=N2)C2(COC2)C(C)(C)O3)c1` (centres unmarked) [RP 148] showed an IC50 of 480 nM. `CC1(C)Oc2ccc(-c3cc(F)ccn3)cc2C2(COC(N)=N2)C12COC2` (centres unmarked) [RP 149] showed an IC50 of 1100 nM. `CC1(C)Oc2ccc(-c3cncc(Cl)n3)cc2C2(COC(N)=N2)C12COC2` (centres unmarked) [RP 150] gave an IC50 of 450 nM. Compound `Cc1cnc(Cl)c(-c2ccc3c(c2)C2(COC(N)=N2)C2(COC2)C(C)(C)O3)c1` (centres unmarked) [RP 151] has an IC50 of 280 nM. Work on `CC1(C)Oc2ccc(-c3cc(Cl)cnc3Cl)cc2C2(COC(N)=N2)C12COC2` (centres unmarked) [RP 152] yielded an IC50 of 110 nM. In the case of `CC1(C)Oc2ccc(-c3cc(F)cnc3Cl)cc2C2(COC(N)=N2)C12COC2` (centres unmarked) [RP 153], the IC50 is reported as 130 nM. Compound `CC1(C)Oc2ccc(-c3cc(Cl)cnc3F)cc2C2(COC(N)=N2)C12COC2` (centres unmarked) [RP 154] has an IC50 of 32 nM. Work on `COc1ncc(Cl)cc1-c1ccc2c(c1)C1(COC(N)=N1)C1(COC1)C(C)(C)O2` (centres unmarked) [RP 155] yielded an IC50 of 630 nM. With `CC1(C)Oc2ccc(-c3cccnc3Cl)cc2C2(COC(N)=N2)C12COC2` (centres unmarked) [RP 156] the IC50 was 180 nM. `Cc1cc(-c2ccc3c(c2)C2(COC(N)=N2)C2(COC2)C(C)(C)O3)cnc1F` (centres unmarked) [RP 157] gave an IC50 of 660 nM. Compound `CC1(C)Oc2ccc(-c3cc(F)ncc3Cl)cc2C2(COC(N)=N2)C12COC2` (centres unmarked) [RP 158] has an IC50 of 370 nM. Work on `CC1(C)Oc2ccc(-c3cnc4[nH]ccc4c3)cc2C2(COC(N)=N2)C12COC2` (centres unmarked) [RP 168] yielded an IC50 of 310 nM. With `CC1(C)Oc2ccc(-c3cc(C#N)ccc3F)cc2C2(COC(N)=N2)C12COC2` (centres unmarked) [RP 170] the IC50 was 400 nM. `CNC(=O)c1cc(F)cc(-c2ccc3c(c2)C2(COC(N)=N2)C2(COC2)C(C)(C)O3)c1` (centres unmarked) [RP 171] was tested, and the IC50 was 3100 nM. Work on `CC1(C)Oc2ccc(-c3cncc(Cl)c3)cc2C2(COC(N)=N2)C12COC2` (centres unmarked) [RP 173] yielded an IC50 of 73 nM. Work on `CC1(C)Oc2ccc(-c3ccc4[nH]ccc4c3)cc2C2(COC(N)=N2)C12COC2` (centres unmarked) [RP 174, 6′-(1H-indol-5-yl)-2′,2′-dimethyldispiro[1,3-oxazole-4,4′-chromene-3′,3″-oxetan]-2-amine] yielded an IC50 of 3400 nM. With `CC1(C)Oc2ccc(-c3cccc4[nH]ncc34)cc2C2(COC(N)=N2)C12COC2` (centres unmarked) [RP 176] the IC50 was 850 nM. For `CC1(C)Oc2ccc(-c3ccc4[nH]ncc4c3)cc2C2(COC(N)=N2)C12COC2` (centres unmarked) [RP 177], the IC50 was 1500 nM. `CC1(C)Oc2ccc(-c3ccc4nonc4c3)cc2C2(COC(N)=N2)C12COC2` (centres unmarked) [RP 178] was tested, and the IC50 was 810 nM. In the case of `CC1(C)Oc2ccc(-c3cccc4cccnc34)cc2C2(COC(N)=N2)C12COC2` (centres unmarked) [RP 179], the IC50 is reported as 1400 nM. `CC1(C)Oc2ccc(-c3cccc4cnccc34)cc2C2(COC(N)=N2)C12COC2` (centres unmarked) [RP 180] gave an IC50 of 490 nM. Work on `COC/C=C/c1ccc2c(c1)C1(COC(N)=N1)C1(COC1)C(C)(C)O2` (centres unmarked) [RP 181] yielded an IC50 of 820 nM. `CC1(C)Oc2ccc(-c3ccc4c(c3)OCO4)cc2C2(COC(N)=N2)C12COC2` (centres unmarked) [RP 182] gave an IC50 of 2500 nM. `CC1(C)Oc2ccc(-c3c(F)ccc(F)c3F)cc2C2(COC(N)=N2)C12COC2` (centres unmarked) [RP 185] showed an IC50 of 760 nM. For `NC1=NC2(CO1)c1cc(NC(=O)c3ncc(Br)cn3)ccc1OCC21CC1` (centres unmarked) [RP 189], the IC50 was 43 nM. For `COc1cnc(C(=O)Nc2ccc3c(c2)C2(COC(N)=N2)C2(CC2)CO3)cn1` (centres unmarked) [RP 193], the IC50 was 81 nM. For `N#Cc1ccc(C(=O)Nc2ccc3c(c2)C2(COC(N)=N2)C2(CC2)CO3)nc1` (centres unmarked) [RP 196], the IC50 was 53 nM. Compound `NC1=NC2(c3cc(-c4cncnc4)ccc3OCC23CC3)c2cccc(F)c21` (centres unmarked) [RP 199] has an IC50 of 240 nM. Compound `NC1=NC2(CO1)c1cc(-c3cncnc3)ccc1OC(Cc1ccccc1)C21COC1` (centres unmarked) [RP 200] has an IC50 of 26 nM. In the case of `CC#Cc1cncc(-c2ccc3c(c2)C2(COC(N)=N2)C2(COC2)C(Cc2ccccc2)O3)c1` (centres unmarked) [RP 201], the IC50 is reported as 8.7 nM. Compound `NC1=NC2(CO1)c1cc(-c3cncnc3)ccc1OC(CC1CC1)C21COC1` (centres unmarked) [RP 204] has an IC50 of 240 nM. `CC#Cc1cncc(-c2ccc3c(c2)C2(COC(N)=N2)C2(COC2)C(CC2CC2)O3)c1` (centres unmarked) [RP 205] was tested, and the IC50 was 22 nM. `NC1=NC2(c3cc(-c4cncnc4)ccc3OCC23CC3)C(F)(F)CO1` (centres unmarked) [RP 206] was tested, and the IC50 was greater than 30000 nM. With `NC1=NC2(CO1)c1cc(-c3cncnc3)ccc1OCC21CC(F)(F)C1` (centres unmarked) [RP 208] the IC50 was 6100 nM. In the case of `NC1=NC2(CO1)c1cc(-c3cccnc3)ccc1OC1(CCC1)C21COC1` (centres unmarked) [RP 209], the IC50 is reported as 830 nM. `NC1=NC2(COC1)c1cc(-c3cncnc3)ccc1OCC21CC1` (centres unmarked) [RP 215, 6′-(pyrimidin-5-yl)-6″H-dispiro[cyclopropane-1,3′-chromene-4′,3″-[1,4]oxazin]-5″-amine] was tested, and the IC50 was 240 nM.
